In patent US20180071242A1, “SUBSTITUTED ACYLANILIDES AND METHODS OF USE THEREOF” (University of Tennessee Research Foundation, priority 2006, published 2018):

How the values were obtained:
[1] = system: orchidectomized (ORX) male Sprague-Dawley rats; assay: Anabolic and androgenic activity in castrated (ORX) male rats; assay type: in vivo, rat; conditions: maximally stimulated
Experimental: Anabolic and androgenic efficacy of compound of formula (I) administered by daily oral gavage were tested. The S-isomer of compound (I) [S-(I)] was synthesized and tested as described herein.
The test article for this study was weighed and dissolved in 10% DMSO (Fischer) diluted with PEG 300 (Acros Organics, NJ) for preparation of the appropriate dosage concentrations. The animals were housed in groups of 2 to 3 animals per cage. Animals were randomly assigned to one of seven groups consisting of 4 to 5 animals per group. Control groups (intact and ORX) were administered vehicle daily. S-(I) was administered via oral gavage at doses of 0.01, 0.03, 0.1, 0.3, 0.75, and 1 mg/day to both intact and ORX groups. Where appropriate, animals were castrated on day one of the study. Treatment with S-(I) began nine days post ORX and was administered daily via oral gavage for fourteen days.
The animals were sacrificed under anesthesia (ketamine/xyalzine, 87:13 mg/kg) and body weights were recorded. In addition, ventral prostate, seminal vesicles, and levator ani muscle were removed, individually weighed, normalized to body weight, and expressed as a percentage of intact control. Student's T-test was used to compare individual dose groups to the intact control group. Significance was defined a priori as a P-value <0.05. Ventral prostate and seminal vesicle weights were evaluated as a measure of androgenic activity, whereas levator ani muscle weight was evaluated as a measure of anabolic activity. Blood was collected from the abdominal aorta, centrifuged, and sera were frozen at −80° C. prior to determination of serum hormone levels. Serum luteinizing hormone (LH) and follicle stimulating hormone (FSH) concentrations were determined.

[2] = system: DMD (−/−) UTRN (−/−) mice; assay: Double knockout mouse model of Duchenne muscular dystrophy; conditions: 10 mg/kg/day, data cumulative across the SARM groups
PR = molecular target: T1, PR (Rattus norvegicus, UniProt Q63449); assay: Transient transfection luciferase transactivation assay in HEK-293 cells; assay type: cell-based; conditions: 1 nM
T1 construct: expressed in transfected cells; host or cells: HEK-293
T1 sequence (Q63449 1-923): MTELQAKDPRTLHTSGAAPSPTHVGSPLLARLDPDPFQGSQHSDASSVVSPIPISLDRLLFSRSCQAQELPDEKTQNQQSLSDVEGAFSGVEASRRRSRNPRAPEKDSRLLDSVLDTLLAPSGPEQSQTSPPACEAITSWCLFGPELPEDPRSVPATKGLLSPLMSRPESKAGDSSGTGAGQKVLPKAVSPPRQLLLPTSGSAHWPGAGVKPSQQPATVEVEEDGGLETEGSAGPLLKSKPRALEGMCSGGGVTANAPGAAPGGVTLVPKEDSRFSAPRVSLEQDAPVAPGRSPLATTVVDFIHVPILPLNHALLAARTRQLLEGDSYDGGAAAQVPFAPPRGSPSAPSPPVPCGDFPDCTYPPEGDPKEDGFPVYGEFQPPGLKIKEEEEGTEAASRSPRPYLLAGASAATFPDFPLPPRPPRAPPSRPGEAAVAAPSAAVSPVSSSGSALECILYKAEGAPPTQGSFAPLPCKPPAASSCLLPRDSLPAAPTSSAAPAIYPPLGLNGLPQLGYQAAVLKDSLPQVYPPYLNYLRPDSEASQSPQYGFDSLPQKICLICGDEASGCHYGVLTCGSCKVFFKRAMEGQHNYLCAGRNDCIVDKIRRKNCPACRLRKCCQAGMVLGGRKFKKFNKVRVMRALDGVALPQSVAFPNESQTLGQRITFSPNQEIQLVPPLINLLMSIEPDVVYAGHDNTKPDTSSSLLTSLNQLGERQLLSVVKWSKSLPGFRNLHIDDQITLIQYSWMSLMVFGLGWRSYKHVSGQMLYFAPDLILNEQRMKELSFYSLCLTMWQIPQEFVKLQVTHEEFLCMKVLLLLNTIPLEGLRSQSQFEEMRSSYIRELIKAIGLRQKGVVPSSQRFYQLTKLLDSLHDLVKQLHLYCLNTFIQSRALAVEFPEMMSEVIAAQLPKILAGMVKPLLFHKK

CYP2C9 = molecular target: T2, CYP2C9 (Homo sapiens, UniProt P11712); assay: CYP inhibition screening, recombinant enzyme (fluorescent-based) assay; assay type: in vitro ADME; conditions: human, 30 min
T2 construct: purchased Gentest, BD Biosciences

MR = molecular target: T3, MR (Rattus norvegicus, UniProt P22199); assay: Transient transfection luciferase transactivation assay in HEK-293 cells; assay type: cell-based; conditions: 1 nM
T3 construct: expressed in transfected cells; host or cells: HEK-293
T3 sequence (P22199 1-981): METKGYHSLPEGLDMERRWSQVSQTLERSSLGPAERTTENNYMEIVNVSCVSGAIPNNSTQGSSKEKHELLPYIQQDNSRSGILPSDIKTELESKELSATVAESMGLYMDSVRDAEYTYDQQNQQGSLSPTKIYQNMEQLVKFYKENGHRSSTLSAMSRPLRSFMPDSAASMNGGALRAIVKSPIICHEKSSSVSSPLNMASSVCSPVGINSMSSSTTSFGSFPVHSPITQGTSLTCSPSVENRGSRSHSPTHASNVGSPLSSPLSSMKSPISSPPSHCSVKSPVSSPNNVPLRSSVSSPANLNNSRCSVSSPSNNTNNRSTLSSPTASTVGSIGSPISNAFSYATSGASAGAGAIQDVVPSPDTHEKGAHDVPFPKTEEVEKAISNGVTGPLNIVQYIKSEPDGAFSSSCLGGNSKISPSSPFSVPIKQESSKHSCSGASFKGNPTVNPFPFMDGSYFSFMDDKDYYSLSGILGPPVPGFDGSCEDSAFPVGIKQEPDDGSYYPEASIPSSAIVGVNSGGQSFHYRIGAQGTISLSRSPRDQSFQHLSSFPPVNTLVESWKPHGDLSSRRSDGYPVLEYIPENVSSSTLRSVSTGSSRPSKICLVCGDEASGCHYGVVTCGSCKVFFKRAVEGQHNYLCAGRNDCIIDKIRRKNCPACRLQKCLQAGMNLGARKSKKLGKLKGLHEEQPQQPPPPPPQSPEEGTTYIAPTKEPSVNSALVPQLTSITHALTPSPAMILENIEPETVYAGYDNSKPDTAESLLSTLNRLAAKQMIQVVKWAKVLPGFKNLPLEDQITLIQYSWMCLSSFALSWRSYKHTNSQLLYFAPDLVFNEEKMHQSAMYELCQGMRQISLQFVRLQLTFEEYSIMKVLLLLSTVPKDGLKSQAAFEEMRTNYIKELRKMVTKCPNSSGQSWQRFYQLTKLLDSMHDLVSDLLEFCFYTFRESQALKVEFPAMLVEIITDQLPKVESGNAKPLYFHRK

GR = molecular target: T4, GR (Rattus norvegicus, UniProt P06536); assay: as above; assay type: cell-based; conditions: 1 nM
T4 construct: expressed in transfected cells; host or cells: HEK-293
T4 sequence (P06536 1-795): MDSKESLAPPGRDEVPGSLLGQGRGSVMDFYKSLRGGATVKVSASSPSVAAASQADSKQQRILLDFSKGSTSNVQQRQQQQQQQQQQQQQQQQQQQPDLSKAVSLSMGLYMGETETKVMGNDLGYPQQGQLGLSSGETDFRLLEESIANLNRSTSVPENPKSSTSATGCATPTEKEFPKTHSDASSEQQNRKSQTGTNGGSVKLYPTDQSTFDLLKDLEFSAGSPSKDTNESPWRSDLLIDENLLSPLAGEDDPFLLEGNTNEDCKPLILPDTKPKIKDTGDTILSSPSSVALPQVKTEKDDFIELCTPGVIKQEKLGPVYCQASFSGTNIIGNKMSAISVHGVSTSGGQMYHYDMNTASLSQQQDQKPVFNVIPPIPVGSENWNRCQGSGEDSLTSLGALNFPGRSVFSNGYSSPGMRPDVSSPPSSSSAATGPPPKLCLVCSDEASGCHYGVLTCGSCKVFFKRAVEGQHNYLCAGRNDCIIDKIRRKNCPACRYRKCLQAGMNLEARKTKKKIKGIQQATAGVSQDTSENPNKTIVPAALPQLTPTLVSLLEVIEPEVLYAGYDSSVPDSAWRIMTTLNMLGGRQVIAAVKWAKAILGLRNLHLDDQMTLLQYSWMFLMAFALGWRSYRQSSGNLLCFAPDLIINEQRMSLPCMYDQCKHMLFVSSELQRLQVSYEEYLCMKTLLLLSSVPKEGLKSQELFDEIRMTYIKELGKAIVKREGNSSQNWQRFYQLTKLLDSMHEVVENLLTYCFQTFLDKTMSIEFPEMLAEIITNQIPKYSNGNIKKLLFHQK

T2 sequence (P11712 whole entry): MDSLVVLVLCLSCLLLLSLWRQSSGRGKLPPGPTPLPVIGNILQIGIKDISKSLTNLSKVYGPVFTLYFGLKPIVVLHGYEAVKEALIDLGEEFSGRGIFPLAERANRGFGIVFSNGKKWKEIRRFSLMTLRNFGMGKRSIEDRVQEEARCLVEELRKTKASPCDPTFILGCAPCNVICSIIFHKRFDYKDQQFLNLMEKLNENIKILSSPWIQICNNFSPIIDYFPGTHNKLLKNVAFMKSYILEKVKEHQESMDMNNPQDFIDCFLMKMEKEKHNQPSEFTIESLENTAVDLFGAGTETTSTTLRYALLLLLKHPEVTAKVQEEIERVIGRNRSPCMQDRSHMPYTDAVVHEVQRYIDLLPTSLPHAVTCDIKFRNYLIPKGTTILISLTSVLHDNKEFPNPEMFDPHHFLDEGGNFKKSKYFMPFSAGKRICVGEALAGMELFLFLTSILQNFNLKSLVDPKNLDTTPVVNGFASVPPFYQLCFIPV

With CC(=O)Nc1ccc(OC[C@](C)(O)C(=O)Nc2ccc([N+](=O)[O-])c(C(F)(F)F)c2)cc1 [S-4, S-3-(4-acetylaminophenoxy)-2-hydroxy-2-methyl-N-(4-nitro-3-trifluoromethylphenyl)propanamide, reference compound] the “Maximal stimulation of levator ani muscle weight” value [1] was 101%.

C[C@](O)(COc1ccc(C#N)cc1)C(=O)Nc1ccc(C#N)c(C(F)(F)F)c1 [S-(IV)] was tested, and the “Ability to be ambulatory (in words)” value [2] was “enhanced the ability of these mice to be ambulatory”, the “Deterioration of body weight (in words)” value [2] was “delayed the deterioration” and the “Deterioration of grip strength (in words)” value [2] was “delayed the deterioration”. The “Deterioration of lean mass (in words)” value [2] was “delayed the deterioration”.

CC#C[C@]1(O)CC[C@H]2[C@@H]3CCC4=CC(=O)CCC4=C3[C@@H](c3ccc(N(C)C)cc3)C[C@@]21C [RU486, reference compound] was tested, and the “Inhibition of PR activity, antagonist mode (in words)” value (PR) was “completely inhibited”.

For C[C@](O)(COc1ccc(C#N)c(F)c1)C(=O)Nc1ccc(C#N)c(C(F)(F)F)c1 [S-(V)], the “Ability to be ambulatory (in words)” value [2] was “enhanced the ability of these mice to be ambulatory”, the “Deterioration of body weight (in words)” value [2] was “delayed the deterioration” and the “Deterioration of grip strength (in words)” value [2] was “delayed the deterioration”. For the same compound, the “Deterioration of lean mass (in words)” value [2] was “delayed the deterioration”.

In the case of Nc1ccc(S(=O)(=O)Nc2ccnn2-c2ccccc2)cc1 [Sulfaphenazole, reference compound], the “Inhibition of CYP2C9 activity (in words)” value (CYP2C9) is reported as “potently inhibited”.

For C[C@]12CCC(=O)C=C1CC[C@@H]1[C@@H]2[C@@H](O)C[C@]2(C=O)[C@@H](C(=O)CO)CC[C@@H]12 [aldosterone, reference compound], the “MR activity induced by known ligand” value (MR) was 60 fold.

With CCC(=O)O[C@H]1CC[C@H]2[C@@H]3CCC4=CC(=O)CC[C@]4(C)[C@H]3CC[C@]12C [Testosterone propionate, reference compound] the “Maximal stimulation of levator ani muscle weight” value [1] was 104%.

CC(=O)[C@H]1CC[C@H]2[C@@H]3CCC4=CC(=O)CC[C@]4(C)[C@H]3CC[C@]12C [progesterone, reference compound] was tested, and the “PR activity induced by known ligand” value (PR) was 23 fold.

With C[C@@H]1C[C@H]2[C@@H]3CCC4=CC(=O)C=C[C@]4(C)[C@@]3(F)[C@@H](O)C[C@]2(C)[C@@]1(O)C(=O)CO [dexamethasone, reference compound] the “GR activity induced by known ligand” value (GR) was 70 fold.
